According to paper PMC10046692 (Cancers, 2023):

Legend:
HDAC6 = molecular target: T1, HDAC6 (Homo sapiens, UniProt Q9UBN7); test: HDAC inhibition, fluorescence-based assay (BPS Bioscience); type: biochemical; conditions: HDAC6 versus HDAC1
T1 construct: purchased BPS Bioscience (contract research organization that ran the assay)
T1 sequence (Q9UBN7 1-1215): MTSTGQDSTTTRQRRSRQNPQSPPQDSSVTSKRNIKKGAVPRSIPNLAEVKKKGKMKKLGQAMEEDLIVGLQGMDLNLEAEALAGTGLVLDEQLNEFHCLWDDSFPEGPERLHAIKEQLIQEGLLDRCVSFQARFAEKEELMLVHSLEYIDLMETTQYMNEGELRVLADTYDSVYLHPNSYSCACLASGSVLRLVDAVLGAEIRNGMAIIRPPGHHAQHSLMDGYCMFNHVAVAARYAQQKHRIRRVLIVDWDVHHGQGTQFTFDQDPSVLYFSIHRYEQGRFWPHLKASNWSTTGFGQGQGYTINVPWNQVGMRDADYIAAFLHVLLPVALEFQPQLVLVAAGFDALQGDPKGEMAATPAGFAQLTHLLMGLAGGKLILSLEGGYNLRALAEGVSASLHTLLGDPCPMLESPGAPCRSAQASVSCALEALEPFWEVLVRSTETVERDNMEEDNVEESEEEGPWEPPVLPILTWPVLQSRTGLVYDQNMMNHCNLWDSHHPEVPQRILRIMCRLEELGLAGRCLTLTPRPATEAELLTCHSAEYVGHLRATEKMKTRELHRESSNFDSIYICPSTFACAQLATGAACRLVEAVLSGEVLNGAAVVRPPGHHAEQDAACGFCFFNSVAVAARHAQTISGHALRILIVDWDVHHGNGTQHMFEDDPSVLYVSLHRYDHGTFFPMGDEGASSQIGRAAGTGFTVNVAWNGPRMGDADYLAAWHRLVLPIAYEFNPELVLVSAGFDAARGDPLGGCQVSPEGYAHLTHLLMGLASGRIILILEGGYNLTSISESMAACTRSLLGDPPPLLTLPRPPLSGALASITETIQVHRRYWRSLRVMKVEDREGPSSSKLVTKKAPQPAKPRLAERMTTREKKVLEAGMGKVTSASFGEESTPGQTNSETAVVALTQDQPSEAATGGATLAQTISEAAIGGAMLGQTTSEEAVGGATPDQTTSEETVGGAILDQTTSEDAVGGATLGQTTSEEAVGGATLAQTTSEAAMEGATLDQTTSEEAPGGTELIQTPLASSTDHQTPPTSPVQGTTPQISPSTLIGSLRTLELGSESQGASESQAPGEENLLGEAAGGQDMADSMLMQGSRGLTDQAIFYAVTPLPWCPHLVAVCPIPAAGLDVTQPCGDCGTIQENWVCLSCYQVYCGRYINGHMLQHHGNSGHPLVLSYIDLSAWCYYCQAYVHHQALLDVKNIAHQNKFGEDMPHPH
Procedure: In vitro HDAC inhibition was performed by the contract research organization (CRO) BPS Bioscience while an AR-binding assay was performed by Eurofins Panlabs. (St. Charles, MO, USA). These assays were performed through contract agreements with these CROs.

HEK-293 cells = test: cells; type: cell-based
Procedure: (§1) Human PCa cells (LNCaP and 22Rv1) and normal prostate epithelial (RWPE-1) and kidney (HEK-293 and VERO) cells were obtained from American […] (ATCC, Manassas, VA, USA). C4-2B was obtained from the ViroMed Laboratories (Minneapolis, MN). The cells were grown on a specified medium previously described. Dihydrotestosterone (DHT) (1 nM) (Cerilliant, TX, USA) studies were performed in phenol red-free RPMI1640 supplemented with 10% charcoal-stripped FBS (Gemini, West Sacramento, CA, USA).

VERO cells = test: cells; type: cell-based
Procedure: as §1

22Rv1 cells [1] = test: Cell viability, Alamar blue assay; type: cell-based; conditions: Homo sapiens, treated for 24 h, read-out: growth inhibition IC50, 22Rv1
Procedure: (§2) The effect of the treatments on prostate cancer and normal prostate epithelial cells’ (LNCaP, 22Rv1, C4-2B, PC3, and RWPE1) viability was evaluated using the Alamar blue assay. Cells were seeded into 96-well plates, and after growing to 60–75% confluency, they were treated with vehicle control (DMSO, Sigma Aldrich, St. Louis, MO, USA) or various concentrations of SBI-46 in respective media for 24 h. At the termination of exposure, cells were incubated with 100 μL of 3% Alamar Blue solution in a complete growth medium at 37 °C for 2 h. Absorbance was measured, and data were analyzed following the manufacturer’s instructions (Life Technologies Corporation, Eugene, OR, USA).

C4-2B cells [2] = test: Cell viability, Alamar blue assay; type: cell-based; conditions: Homo sapiens; treated for 24 h; read-out: growth inhibition IC50, C4-2B
Procedure: as §2

LNCaP cells [3] = test: Cell viability, Alamar blue assay; type: cell-based; conditions: Homo sapiens, treated for 24 h, read-out: growth inhibition IC50, LNCaP
Procedure: as §2

PC-3 cells = test: Cell viability, Alamar blue assay; type: cell-based; conditions: treated for 24 h
Procedure: as §2

RWPE-1 cells = type: cell-based
Procedure: as §2

C4-2B cells [4] = test: Soft agar colony formation assay; type: cell-based, human; conditions: p = 0.001
Source text: (§3) The CytoSelectTM 96-well In Vitro Tumor Sensitivity Assay Kit was used to perform the colony formation assay to detect anchorage-independent growth (Cell Biolabs, Inc., San Diego, CA, USA). LNCaP, C4-2B, and 22Rv1 cells (5 × 10^3 cells) that had been exposed to either the vehicle or SBI-46 were harvested and used for the assay following the manufacturer’s instructions. Colonies were manually counted after being stained with 0.005% crystal violet after ten days.

22Rv1 cells [5] = test: Soft agar colony formation assay; type: cell-based, Human; conditions: p = 0.001
Source text: as §3

LNCaP cells [6] = test: Soft agar colony formation assay; type: cell-based, Human; conditions: p = 0.001
Source text: as §3

[7] = tested on: acetylated H4 and tubulin in LNCaP cells; test: Western blot of H4 and tubulin acetylation (intracellular HDAC inhibition); type: cell-based, Human; conditions: 0.5 and 5 µM, 6 h
Procedure: To probe H4 and tubulin acetylation status, LNCaP cells were seeded into a 6-well plate at 1 × 10^6/well in RPMI for 24–48 h until the confluency reached 80%. […] Cells were treated for 6 h and scraped out of the well. The cells were washed with cold PBS three times and lysed with RIPA buffer (110 μL) (VWR, VWRVN653—100 mL) containing phosphatase inhibitor (Fisher Thermo, A32957, Waltham, MA, USA) and protease inhibitor (Fisher Thermo, A32955). The cell lysates were vortexed for 15 s, followed by sonication for 90 s. The lysates were then centrifuged at 14,000 rpm for 10 min, and the supernatants were collected. The total protein concentration was determined using a BCA protein assay kit (BioVision, K813-2500, Milpitas, CA, USA). Based on the results from the BCA assay, the lysates were diluted to make an equal protein concentration, and 20 μg of each lysate was loaded to each well of the TGX MIDI 4–20% gel (Biorad, cat. 5671093, Hercules, CA, USA) and ran at 150 V for 70 min. […]

[8] = tested on: AR-FL, AR-V7 and PSA expression in CRPC cells; test: Western blot of AR-FL, AR-V7 and PSA expression; type: cell-based, Human
C4-2B cells [9] = test: Annexin V-FITC / PI apoptosis assay; type: cell-based, human; conditions: p = 0.01
Source text: As previously described, apoptosis was detected using the annexin V-fluorescein isothiocyanate (FITC) versus propidium iodide (PI) assay (FITC Annexin V Apoptosis Detection Kit I, BD Pharminogen).

22Rv1 xenograft tumors = test: Subcutaneous xenograft study in nude mice; type: in vivo; conditions: 20 mg/kg b.w. orally, five days/week for four weeks
Procedure: (§4) All animals were maintained in germ-free environments, and the study was carried out per IACUC guidelines that the University of Louisville authorized. Athymic nude Balb/c mice (nu/nu) were obtained from The Jackson Laboratory at 6 weeks of age. C4-2B and 22Rv1 cells (1–1.5 × 10^6, approximately) were injected into separate flanks of the mice (n = 6) for subcutaneous tumor xenograft studies using a final volume of 100 μL of phosphate-buffered saline and Matrigel (1:1). Once the tumors reached ~50–100 mm^3, the mice were randomly divided into two groups; one group received a vehicle and the other groups received SB1-46 (20 mg/kg) orally for […] for 4 weeks. Mice were monitored twice weekly, and tumor volumes were measured once a week.
(§5) Finally, in a nude mice model, we evaluated the efficacy of orally administered SBI-46 in xenograft tumors from 22Rv1 and C4-2B cells. Athymic BALB/c nude mice were subcutaneously injected with 22Rv1 and C4-2B (1 × 10^6 cells), and when the tumors reached 50–100 mm^3, either the vehicle or SBI-46 (20 mg/kg b.w.) were given orally for five days/week for four weeks.

C4-2B xenograft tumors = test: Subcutaneous xenograft study in nude mice; type: in vivo; conditions: 20 mg/kg b.w. orally, five days/week for four weeks
Procedure: as §4, §5

[10] = Toxicity observation in xenograft study; type: in vivo; conditions: xenograft nude mice, 20 mg/kg orally
Procedure: as §4
It has been reported that the inhibition of AR-mediated survival signaling by small molecules results in either cell cycle arrest or the induction of apoptosis in CRPC cells. Our studies also observed the induction of pro-apoptotic machinery and concomitant downregulation of pro-survival signaling in SBI-46-treated CRPC cells.

What does the source list for `CC1(C)C(=O)N(c2ccc(C#N)c(C(F)(F)F)c2)C(=O)N1Cc1ccc(-c2cn(CCCCCCCC(=O)NO)nn2)cc1F` [SBI-46]?
selectivity for HDAC6 (HDAC6): ~ 4 fold; toxicity in kidney cell line HEK-293 (HEK-293 cells): no significant toxicity; IC50 (HEK-293 cells; Homo sapiens, HEK293, Figure 1B): 16.4 ± 2.22 µM; toxicity in kidney cell line VERO (VERO cells): no significant toxicity; IC50 (VERO cells; Chlorocebus sabaeus, Vero, Figure 1B): 40 ± 4.57 µM; IC50 (22Rv1 cells [1]): 560 nM; IC50 (C4-2B cells [2]): 480 nM; IC50 (LNCaP cells [3]): 500 nM; effect on viability of AR-null PC-3 cells (PC-3 cells): not effective; toxicity in normal prostate epithelial cell line RWPE-1 (RWPE-1 cells): no significant toxicity; colony-forming ability, C4-2B (C4-2B cells [4]): reduced the colony-forming ability; colony-forming ability, 22Rv1 (22Rv1 cells [5]): reduced the colony-forming ability; colony-forming ability, LNCaP (LNCaP cells [6]): reduced the colony-forming ability; acetylation status of H4 and α-tubulin [7]: dose-dependent upregulation of acetylated H4 and tubulin; expressions of AR-FL and AR-V7 [8]: downregulated; induction of apoptosis (annexin V-FITC staining) (C4-2B cells [9]): 18%; tumor volume and weight, 22Rv1 xenograft (22Rv1 xenograft tumors): significant decrease; tumor volume and weight, C4-2B xenograft (C4-2B xenograft tumors): significant decrease; toxicity in vivo, gross pathological examination of vital organs [10]: not toxic
